Results as given in patent US20090291857A1, “METHODS TO IDENTIFY INHIBITORS OF THE UNFOLDED PROTEIN RESPONSE” (THE BOARD OF TRUSTEES OF THE LELAND STANFORD JUNIOR …, priority 2006, published 2009).

How the values were obtained:
HT1080 tumor xenografts = experiment: Immunohistochemical analysis of tumor xenografts; type: in vivo, mouse; settings: three doses, 50 mg/kg
Protocol: Tumor-bearing mice were injected i.p. with hypoxyprobe (50 mg/kg) 1 hour prior to sacrifice. Mice were euthanised under anesthesia by cervical dislocation, and tumors were surgically resected, embedded in OCT compound (Sakura Tissue Tek), and frozen at −80° C. Tumors were sectioned at 8 μm, fixed in 4% paraformaldehyde, and blocked in PBS-4% BSA. Tissue sections were incubated overnight in block solution containing antisera specific for hypoxyprobe (1:250) and cleaved caspase-3 (1:400). Slides were washed three times with block solution and incubated for 2 hours at room temperature with anti-mouse Alexa 488 or anti-rabbit Alexa 594 (Invitrogen, San Diego, Calif.). Slides were washed five times in block solution, and coverslips mounted with Permount supplemented with DAPI.
Immunohistochemical analysis of tumor xenografts. […] D. Quantification of tumor immunohistochemistry. At least 8 randomly chosen fields (>300 cells/field) per tumor were scored for pimonidazole and cleaved caspase-3 staining. A minimum of 3 tumors (250-300 mm^3 at harvest) were analyzed per treatment group. […]
We further examined tumors from control and irestatin-treated mice for differences in cell survival. […] The increase in apoptosis was most pronounced in hypoxic tissue regions of tumors, as determined by co-immunoreactivity for pimonidazole adducts (FIG. 14C, bottom panel). […]

XBP-luciferase reporter = XBP-luciferase reporter assay under Tm or hypoxia; type: cell-based, human
Protocol: HT1080 cells stably expressing the XBP-luciferase construct were grown in 60 mm dishes to 60-70% confluency. Following hypoxia treatment, cells were washed twice with PBS, lysed in 400 μl 1× reporter lysis buffer (RLB) (Promega, Madison Wis.) for 30 min at 24° C. Lysates (100 μl) were mixed with an equal volume of luciferase substrate (Promega), and assayed using a luminometer. For 5×-UPRE-luciferase reporter assays, cells were co-transfected with the appropriate reporter plasmid and a control plasmid (pSV40-beta-gal) using Lipofectamine 2000 (Invitrogen, San Diego, Calif.). Twenty-four hours after transfection, fresh media was added, and cells were treated with Tm or shifted to hypoxia. After treatment, cells were lysed in 1× RLB and analyzed for luciferase activity as described above. Beta-galactosidase activity was determined using the beta-galactosidase enzyme assay system (Promega).
A. XBP-luciferase reporter construct. […] After 24 hours, luciferase activity was analyzed in an automated plate reader. For each cell line, values are expressed as the percent inhibition of the median for Tm/Tg-treated wells, corrected for background. […] Values are expressed as the fold increases over uninduced levels. […] Cells were harvested, lysed, and analyzed by immunoblotting with antisera specific for HIF-1α (top), XBP-1s (middle) or actin (bottom). […]

## Cc1csc(NC(=O)CSc2nc3c(c(C(F)(F)F)c2C#N)CCC3)n1 [Compound 9389]
HT1080 tumor xenografts
  cleaved caspase-3 in tumors relative to vehicle: significant increase
XBP-luciferase reporter; 1 μM, hypoxia 24 or 48 hours
  activation of the XBP-luciferase reporter under hypoxia: robustly inhibited this response
XBP-luciferase reporter; Homo sapiens, Tm 24 hours, read-out: inhibition of Tm-mediated activation of the XBP-luciferase reporter
  inhibition at 1 µM: > 90%
